Assay [1] has as its target T1, CK1α (Homo sapiens, UniProt P48729+Q96SW2).
T1 construct: effects of the compounds of the present disclosure on the expression of target proteins in cells; endogenous in cells; host or cells: human PBMCs (Milecell Biotechnologies)
The assay can be described thus: Western blot, degradation of substrate protein in hPBMCs. Type of assay: cell-based. Background: In western blotting, separated proteins are transferred to a membrane and probed.

Assay [2] addresses T2, IKZF1 (Homo sapiens, UniProt Q13422+Q96SW2).
T2 construct: effects of the compounds of the present disclosure on the expression of target proteins in cells; endogenous in cells; host or cells: human PBMCs (Milecell Biotechnologies)
The description is as above. Format: cell-based.

The target of assay [3] is T3, IKZF3 (Homo sapiens, UniProt Q96SW2+Q9UKT9).
T3 construct: effects of the compounds of the present disclosure on the expression of target proteins in cells; endogenous in cells; host or cells: human PBMCs (Milecell Biotechnologies)
T3 sequence (Q9UKT9 whole entry): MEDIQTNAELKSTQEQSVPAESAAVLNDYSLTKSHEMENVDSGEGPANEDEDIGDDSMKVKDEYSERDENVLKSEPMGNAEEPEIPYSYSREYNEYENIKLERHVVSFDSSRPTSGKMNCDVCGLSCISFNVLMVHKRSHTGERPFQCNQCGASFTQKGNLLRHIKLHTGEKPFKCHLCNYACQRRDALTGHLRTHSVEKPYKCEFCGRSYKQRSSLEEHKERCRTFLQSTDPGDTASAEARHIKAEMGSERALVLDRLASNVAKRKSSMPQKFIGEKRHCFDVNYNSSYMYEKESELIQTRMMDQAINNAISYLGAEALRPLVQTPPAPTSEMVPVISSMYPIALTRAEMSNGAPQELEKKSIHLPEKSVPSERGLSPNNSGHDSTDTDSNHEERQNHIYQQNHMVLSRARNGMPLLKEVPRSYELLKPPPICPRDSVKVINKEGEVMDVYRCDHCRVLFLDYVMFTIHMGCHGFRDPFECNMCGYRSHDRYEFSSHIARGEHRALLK
T3 sequence (Q96SW2 whole entry): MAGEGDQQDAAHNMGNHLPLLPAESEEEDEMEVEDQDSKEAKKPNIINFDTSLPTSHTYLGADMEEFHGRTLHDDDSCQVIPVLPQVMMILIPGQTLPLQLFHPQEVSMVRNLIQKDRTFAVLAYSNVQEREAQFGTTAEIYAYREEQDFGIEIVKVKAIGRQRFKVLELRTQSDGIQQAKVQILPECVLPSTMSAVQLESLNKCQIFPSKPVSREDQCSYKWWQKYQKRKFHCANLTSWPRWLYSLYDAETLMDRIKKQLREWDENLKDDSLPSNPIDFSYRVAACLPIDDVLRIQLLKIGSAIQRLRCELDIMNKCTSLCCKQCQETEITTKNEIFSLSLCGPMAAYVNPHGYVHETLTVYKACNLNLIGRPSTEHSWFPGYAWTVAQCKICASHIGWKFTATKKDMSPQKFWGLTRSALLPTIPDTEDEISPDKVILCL
T3 sequence (Q16531 whole entry partner): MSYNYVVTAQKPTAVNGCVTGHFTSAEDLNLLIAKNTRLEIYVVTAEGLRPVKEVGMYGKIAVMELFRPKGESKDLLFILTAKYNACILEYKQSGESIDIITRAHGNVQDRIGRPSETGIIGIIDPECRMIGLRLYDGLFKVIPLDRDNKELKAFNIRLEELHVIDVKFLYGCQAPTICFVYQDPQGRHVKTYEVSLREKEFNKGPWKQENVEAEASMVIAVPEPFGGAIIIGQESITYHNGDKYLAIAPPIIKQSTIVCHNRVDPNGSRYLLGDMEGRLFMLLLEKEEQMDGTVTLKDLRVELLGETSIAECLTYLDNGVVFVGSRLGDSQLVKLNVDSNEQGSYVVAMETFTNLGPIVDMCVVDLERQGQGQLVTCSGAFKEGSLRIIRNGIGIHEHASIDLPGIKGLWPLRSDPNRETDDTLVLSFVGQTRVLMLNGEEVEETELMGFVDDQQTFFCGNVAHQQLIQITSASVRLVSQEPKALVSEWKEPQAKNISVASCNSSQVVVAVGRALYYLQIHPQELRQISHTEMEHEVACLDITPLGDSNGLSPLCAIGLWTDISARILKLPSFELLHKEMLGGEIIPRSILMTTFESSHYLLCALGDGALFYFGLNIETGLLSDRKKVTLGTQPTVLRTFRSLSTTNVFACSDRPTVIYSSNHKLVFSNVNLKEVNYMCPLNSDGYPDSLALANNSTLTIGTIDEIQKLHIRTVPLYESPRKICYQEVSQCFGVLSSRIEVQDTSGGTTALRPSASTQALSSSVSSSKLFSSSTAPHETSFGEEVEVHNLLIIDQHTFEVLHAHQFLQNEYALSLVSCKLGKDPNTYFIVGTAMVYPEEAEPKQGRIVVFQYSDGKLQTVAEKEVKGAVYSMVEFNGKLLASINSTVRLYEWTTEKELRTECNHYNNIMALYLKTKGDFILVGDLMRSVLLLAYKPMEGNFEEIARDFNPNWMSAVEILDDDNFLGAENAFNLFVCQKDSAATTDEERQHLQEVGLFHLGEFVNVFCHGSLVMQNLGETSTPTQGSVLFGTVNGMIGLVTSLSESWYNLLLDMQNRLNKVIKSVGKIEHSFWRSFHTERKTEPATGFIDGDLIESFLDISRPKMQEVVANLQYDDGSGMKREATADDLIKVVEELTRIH
Described as above. Format: cell-based.

In assay [4] the target is T4, IKZF2 (Homo sapiens, UniProt Q96SW2+Q9UKS7).
T4 construct: effects of the compounds of the present disclosure on the expression of target proteins in cells; endogenous in cells; host or cells: human PBMCs (Milecell Biotechnologies)
T4 sequence (Q9UKS7 whole entry): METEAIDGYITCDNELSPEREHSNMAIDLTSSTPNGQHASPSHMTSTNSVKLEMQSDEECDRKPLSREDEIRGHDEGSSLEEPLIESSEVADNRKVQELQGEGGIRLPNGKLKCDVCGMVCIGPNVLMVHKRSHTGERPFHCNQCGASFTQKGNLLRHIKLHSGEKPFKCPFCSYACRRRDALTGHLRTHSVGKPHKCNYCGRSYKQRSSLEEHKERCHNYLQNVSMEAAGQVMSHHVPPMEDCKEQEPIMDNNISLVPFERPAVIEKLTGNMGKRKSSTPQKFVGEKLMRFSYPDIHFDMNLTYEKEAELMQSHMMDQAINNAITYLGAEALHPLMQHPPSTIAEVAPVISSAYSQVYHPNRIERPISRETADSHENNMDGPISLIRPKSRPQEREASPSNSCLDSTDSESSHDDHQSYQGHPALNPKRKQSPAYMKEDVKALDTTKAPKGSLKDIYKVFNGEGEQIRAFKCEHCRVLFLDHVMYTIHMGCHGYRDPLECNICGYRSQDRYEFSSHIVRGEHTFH
T4 sequence (Q96SW2 whole entry): as the sequence (Q96SW2 whole entry) above
T4 sequence (Q16531 whole entry partner): as the sequence (Q16531 whole entry partner) above
The assay is described as above. Format: cell-based.

Assay [5] has as its target T5, WEE1 (Homo sapiens, UniProt P30291+Q96SW2).
T5 construct: effects of the compounds of the present disclosure on the expression of target proteins in cells; endogenous in cells; host or cells: human PBMCs (Milecell Biotechnologies)
Described as above. Format: cell-based.

For assay [6], the system named is Human myeloid monocytic leukemia cell (MV-4-11). As to the kind of experiment: Tumor cell proliferation inhibition (CellTiter-Meiluncell luminescent cell viability assay). To be noted: MV4-11, 96 h; for inhibition at 0.01 µM: read-out: Inhibition Rate at 10 nM (%); for inhibition at 0.5 µM: read-out: Inhibition Rate at 500 nM (%).
Protocol: (§1) The tumor cells used herein were cultured in a cell culture medium listed in table 2 at 37°C in an incubator with 5% CO2. Prior to experimentation, all cell lines used were correctly identified by STR profiling, and tested negative for mycoplasma contamination using a mycoplasma detection kit through routine screenings.
(§2) The IC50 values of the compounds of the present disclosure (including the compounds in Table 1 and Examples) were determined using the CellTiter-Meiluncell Luminescent Cell Viability Assay Kit from Dalian Meilun Biotech Co., Ltd. The detailed procedure is as follows: Tumor cells were seeded in 96-well cell culture plates at the densities specified in Table 3. On the following day, the test compounds of the present disclosure were subjected to serial dilution. The dilution can be performed according to one of the following two methods: • (1) The first dilution method: The test compounds of the present disclosure (including the compounds in Table 1 and Examples) were subjected to 5-fold serial dilutions starting from a highest concentration of 2000 µM, resulting in a total of 9 concentrations from high to low (2000, 400, 80, 16, 3.2, 0.64, 0.128, 0.0256, 0.00512 µM). Subsequently, 0.5 µL of the test compound dilution was transferred into the 96-well plate containing the cells, with each well containing 100 µL of cell culture medium. […] Into the 96-well plate, the diluted test compounds and corresponding detection reagents were added, resulting in final test compound concentrations of 500 nM and 10 nM, respectively. The experimental procedure is described below using the diluted 2 µM test compound as an example.
(§3) 0.5 µL of the aforementioned diluted compound of the present disclosure (including the compounds in Table 1 and Examples) was added to the seeded cells in 100 µL of medium, yielding a final test compound concentration of 10 nM. After the cells were treated with the compounds of the present disclosure for a specified period, the cell viability assay reagent was added to the culture medium according to the kit's instructions to determine cell viability. […] All controls were treated using the same procedure as the compounds of the present disclosure. The growth inhibition curves for the compounds of the present disclosure were plotted using Prism GraphPad software, and the IC50 values were calculated therefrom.
The test system of assay [7] is GSPT1. As to the kind of experiment: Western blot, degradation of substrate protein in hPBMCs. Format: cell-based, Human.
The subject of assay [8] is Human multiple myeloma cell (MM.1S). As to the kind of experiment: Tumor cell proliferation inhibition (CellTiter-Meiluncell luminescent cell viability assay). The note with it: for inhibition at 0.01 µM / inhibition at 0.5 µM: Homo sapiens, MM1.S, 96 h; for inhibition at 0.01 µM: read-out: Inhibition Rate at 10 nM (%); for Inhibition Rate at 500 nM (%): MM.1S, 96 hours; for inhibition at 0.5 µM: read-out: Inhibition Rate at 500 nM (%).
Protocol: as §1, §2, §3

Assay [9] has as its target T6, human Cereblon WT GST-tagged protein (Homo sapiens, UniProt Q96SW2).
T6 construct: purchased CISBIO 64BDCRBNPEH
As to the kind of experiment: CRBN-binding affinity, HTRF (CEREBLON BINDING kit). The note with it: for inhibition at 0.5 µM: read-out: Inhibition Rate at 0.5 µM (%); for inhibition at 2 µM: read-out: Inhibition Rate at 2 µM (%). Background: Time-resolved FRET reads energy transfer from a long-lived donor to a nearby acceptor.

Setting [10] is: Western blot, 24 hours of compound treatment, compounds tested at 50 nM and 500 nM (concentration for the table not stated).
The mark [11] stands for this setting: 24 hours treatment, compounds at 50 nM and 500 nM (concentration behind the class not stated).

T5 sequence (P30291 whole entry): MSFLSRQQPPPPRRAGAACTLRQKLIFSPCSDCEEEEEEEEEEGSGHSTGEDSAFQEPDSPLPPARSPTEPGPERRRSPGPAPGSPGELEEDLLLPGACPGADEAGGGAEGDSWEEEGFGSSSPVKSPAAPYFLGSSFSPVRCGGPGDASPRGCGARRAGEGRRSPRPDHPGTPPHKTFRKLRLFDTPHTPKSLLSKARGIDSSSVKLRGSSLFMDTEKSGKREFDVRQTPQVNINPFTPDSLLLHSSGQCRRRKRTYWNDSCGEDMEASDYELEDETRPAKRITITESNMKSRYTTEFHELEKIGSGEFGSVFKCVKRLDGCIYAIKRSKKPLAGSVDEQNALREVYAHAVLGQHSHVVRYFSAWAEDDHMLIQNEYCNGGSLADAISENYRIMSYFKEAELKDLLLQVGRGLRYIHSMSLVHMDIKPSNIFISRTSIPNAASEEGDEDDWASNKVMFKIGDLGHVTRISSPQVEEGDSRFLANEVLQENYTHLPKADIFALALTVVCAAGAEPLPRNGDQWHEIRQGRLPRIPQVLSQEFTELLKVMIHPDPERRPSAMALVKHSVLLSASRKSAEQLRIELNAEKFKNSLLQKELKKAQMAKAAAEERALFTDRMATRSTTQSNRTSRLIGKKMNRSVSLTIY
T5 sequence (Q96SW2 whole entry): as the sequence (Q96SW2 whole entry) above
T5 sequence (Q16531 whole entry partner): as the sequence (Q16531 whole entry partner) above
T6 sequence (Q96SW2 whole entry): as the sequence (Q96SW2 whole entry) above
T2 sequence (Q13422 whole entry): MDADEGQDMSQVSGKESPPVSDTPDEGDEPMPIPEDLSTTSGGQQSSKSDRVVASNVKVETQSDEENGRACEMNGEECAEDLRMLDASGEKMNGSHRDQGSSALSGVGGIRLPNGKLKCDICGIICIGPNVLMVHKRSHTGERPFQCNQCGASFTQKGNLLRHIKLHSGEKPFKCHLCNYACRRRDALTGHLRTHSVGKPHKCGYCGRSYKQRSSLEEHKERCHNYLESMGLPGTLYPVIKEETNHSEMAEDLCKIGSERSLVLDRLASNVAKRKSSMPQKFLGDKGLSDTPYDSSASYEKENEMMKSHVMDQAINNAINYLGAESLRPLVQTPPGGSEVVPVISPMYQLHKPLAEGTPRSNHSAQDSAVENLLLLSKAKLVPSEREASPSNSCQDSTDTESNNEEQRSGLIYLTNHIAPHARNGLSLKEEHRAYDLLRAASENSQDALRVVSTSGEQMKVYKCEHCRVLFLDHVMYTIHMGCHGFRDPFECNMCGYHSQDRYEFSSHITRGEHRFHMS
T2 sequence (Q96SW2 whole entry): as the sequence (Q96SW2 whole entry) above
T2 sequence (Q16531 whole entry partner): as the sequence (Q16531 whole entry partner) above
T1 sequence (P48729 whole entry): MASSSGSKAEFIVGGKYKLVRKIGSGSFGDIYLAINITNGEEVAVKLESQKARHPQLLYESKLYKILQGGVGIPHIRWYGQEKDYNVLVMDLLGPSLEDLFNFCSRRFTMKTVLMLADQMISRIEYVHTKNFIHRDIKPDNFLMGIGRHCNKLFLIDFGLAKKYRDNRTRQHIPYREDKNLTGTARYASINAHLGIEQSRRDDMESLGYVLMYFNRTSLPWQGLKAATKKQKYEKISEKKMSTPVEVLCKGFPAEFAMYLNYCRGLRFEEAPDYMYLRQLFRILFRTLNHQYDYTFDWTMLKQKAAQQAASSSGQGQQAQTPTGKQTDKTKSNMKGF
T1 sequence (Q96SW2 whole entry): as the sequence (Q96SW2 whole entry) above
T1 sequence (Q16531 whole entry partner): as the sequence (Q16531 whole entry partner) above

As to `O=C1CCC(N2Cc3cc(CN4C5CCC4CN(C(c4ccccc4)c4ccccc4)C5)ccc3C2=S)C(=O)N1` (centres unmarked) [GT-07850, 3-(5-((3-benzhydryl-3,8-diazabicyclo[3.2.1]octan-8-yl)methyl)-1-thioxoisoindolin-2-yl)piperidine-2,6-dione], the “CK1α substrate protein remaining %” value in [1] (setting [10]) is given as “B (80%< substrate protein remaining %≤ 100%)”. Also, in [2] (setting [10]), the “IKZF 1 substrate protein remaining %” value was “B (80%< substrate protein remaining %≤ 100%)”. For the same compound, the “IKZF3 substrate protein remaining %” value in assay [3] (setting [10]) was “B (80%< substrate protein remaining %≤ 100%)”. For the same compound, the “IKZF2 substrate protein remaining %” value in assay [4] (setting [10]) is on record as “A (0% ≤ substrate protein remaining % ≤ 80%)”. Also, in assay [5] (setting [10]), the “Wee1 substrate protein remaining %” value is “A (0% ≤ substrate protein remaining % ≤ 80%)”. In addition, in assay [6], the inhibition at 0.01 µM was 40 to 60% and the inhibition at 0.5 µM was in the range of 40 to 60%. For the same compound, the “GSPT1 substrate protein remaining %” value in assay [7] (setting [10]) is “A (0% ≤ substrate protein remaining % ≤ 80%)”. In [8], the inhibition at 0.01 µM fell in the range of 30 to 40% and the “Inhibition Rate at 500 nM (%)” value is listed as “la7”. In assay [9], the inhibition at 0.5 µM lay in the range of 40 to 53% and the inhibition at 2 µM is 80 to 100%.

Consider `O=C1CCC(N2Cc3cc(CN4CCN(c5ccc(F)cc5)CC4)ccc3C2=S)C(=O)N1` (centres unmarked) [GT-08240, 3-(5-((4-(4-fluorophenyl)piperazin-1-yl)methyl)-1-thioxoisoindolin-2-yl)piperidine-2,6-dione], for which the “CK1α substrate protein remaining %” value in assay [1] (setting [10]) was “B (80%< substrate protein remaining %≤ 100%)”. Also, the “IKZF 1 substrate protein remaining %” value in assay [2] (setting [10]) is “B (80%< substrate protein remaining %≤ 100%)”. The “IKZF3 substrate protein remaining %” value in assay [3] (setting [10]) was “B (80%< substrate protein remaining %≤ 100%)”. The “IKZF2 substrate protein remaining %” value in assay [4] (setting [10]) is listed as “B (80%< substrate protein remaining %≤ 100%)”. In addition, the “Wee1 substrate protein remaining %” value in [5] (setting [10]) was “B (80%< substrate protein remaining %≤ 100%)”. Further, the values for the inhibition at 0.01 µM in [6] and in assay [8] were 0 to 5% and 50 to 60%, respectively. Further, the inhibition at 0.5 µM in assay [6] was in the range of 40 to 60%; in [8] it was 50 to 60%; in assay [9], 53 to 60%. The “GSPT1 substrate protein remaining %” value in assay [7] (setting [10]) was “A (0% ≤ substrate protein remaining % ≤ 80%)”. The inhibition at 2 µM in assay [9] is 80 to 100%.

As for `Cc1ccsc1C1CCN(Cc2ccc3c(c2)CN(C2CCC(=O)NC2=O)C3=S)CC1` (centres unmarked) [GT-08323, 3-(5-((4-(3-methylthiophen-2-yl)piperidin-1-yl)methyl)-1-thioxoisoindolin-2-yl)piperidine-2,6-dione], in [1] (setting [11]), the “CK1α substrate protein remaining %” value is on record as “A (0% ≤ substrate protein remaining % ≤ 80%)”. In addition, the “IKZF 1 substrate protein remaining %” value in assay [2] (setting [11]) is listed as “B (80%< substrate protein remaining %≤ 100%)”. Further, the “IKZF3 substrate protein remaining %” value in assay [3] (setting [11]) was “B (80%< substrate protein remaining %≤ 100%)”. In addition, the “IKZF2 substrate protein remaining %” value in assay [4] (setting [11]) is “B (80%< substrate protein remaining %≤ 100%)”. The “Wee1 substrate protein remaining %” value in assay [5] (setting [11]) is “B (80%< substrate protein remaining %≤ 100%)”. Also, in [6], the inhibition at 0.01 µM is -5 to 0% and the inhibition at 0.5 µM lay within 40 to 60%. In addition, in assay [7] (setting [11]), the “GSPT1 substrate protein remaining %” value is “A (0% ≤ substrate protein remaining % ≤ 80%)”. In addition, in assay [8], the inhibition at 0.01 µM lay in the range of 0 to 5% and the “Inhibition Rate at 500 nM (%)” value is reported as “la7”. Besides, in [9], the inhibition at 0.5 µM lay in the range of 40 to 53% and the inhibition at 2 µM is 80 to 100%.

For `O=C1CCC(N2Cc3c(CN4C[C@@H]5C[C@H]4CN5c4cccc(Cl)c4Cl)cccc3C2=S)C(=O)N1` (stereo partly drawn) [GT-08468, 3-(4-(((1S,4S)-5-(2,3-dichlorophenyl)-2,5-diazabicyclo[2.2.1]heptan-2-yl)methyl)-1-thioxoisoindolin-2-yl)piperidine-2,6-dione], the “CK1α substrate protein remaining %” value in [1] (setting [10]) is on record as “B (80%< substrate protein remaining %≤ 100%)”. Also, the “IKZF 1 substrate protein remaining %” value in [2] (setting [10]) was “B (80%< substrate protein remaining %≤ 100%)”. For the same compound, the “IKZF3 substrate protein remaining %” value in assay [3] (setting [10]) was “B (80%< substrate protein remaining %≤ 100%)”. For the same compound, the “IKZF2 substrate protein remaining %” value in assay [4] (setting [10]) is given as “B (80%< substrate protein remaining %≤ 100%)”. Moreover, the “Wee1 substrate protein remaining %” value in assay [5] (setting [10]) is “B (80%< substrate protein remaining %≤ 100%)”. For the same compound, in assay [6], the inhibition at 0.01 µM was 40 to 60% and the inhibition at 0.5 µM fell in the range of 40 to 60%. In addition, in assay [7] (setting [10]), the “GSPT1 substrate protein remaining %” value is reported as “A (0% ≤ substrate protein remaining % ≤ 80%)”. In assay [8], the inhibition at 0.01 µM lay within 40 to 50% and the inhibition at 0.5 µM is 50 to 60%. Besides, in assay [9], the inhibition at 0.5 µM lay in the range of 40 to 53% and the inhibition at 2 µM lay within 80 to 100%.

Turning to `O=C1CCC(N2Cc3c(CN4CC=C(c5cccc6c(F)cccc56)CC4)cccc3C2=S)C(=O)N1` (centres unmarked) [GT-08856, 3-(4-((4-(5-fluoronaphthalen-1-yl)-3,6-dihydropyridin-1(2H)-yl)methyl)-1-thioxoisoindolin-2-yl)piperidine-2,6-dione], the inhibition at 0.01 µM in [6] lay in the range of 40 to 60%; in assay [8], 20 to 30%. Also, the inhibition at 0.5 µM in [6] was 40 to 60%; in assay [8] it was 40 to 50%; in assay [9], 30 to 40%. Moreover, the inhibition at 2 µM in assay [9] lay in the range of 53 to 60%.

For `O=C1CCC(N2Cc3cc(CN4CCN(c5cccc(C(F)(F)F)n5)CC4)ccc3C2=S)C(=O)N1` (centres unmarked) [GT-09224, 3-(1-thioxo-5-((4-(6-(trifluoromethyl)pyridin-2-yl)piperazin-1-yl)methyl)isoindolin-2-yl)piperidine-2,6-dione], in assay [1] (setting [10]), the “CK1α substrate protein remaining %” value was “A (0% ≤ substrate protein remaining % ≤ 80%)”. The “IKZF 1 substrate protein remaining %” value in assay [2] (setting [10]) is reported as “B (80%< substrate protein remaining %≤ 100%)”. In assay [3] (setting [10]), the “IKZF3 substrate protein remaining %” value is given as “A (0% ≤ substrate protein remaining % ≤ 80%)”. Moreover, in [4] (setting [10]), the “IKZF2 substrate protein remaining %” value is listed as “B (80%< substrate protein remaining %≤ 100%)”. For the same compound, the “Wee1 substrate protein remaining %” value in assay [5] (setting [10]) is “B (80%< substrate protein remaining %≤ 100%)”. In [6], the inhibition at 0.01 µM is -5 to 0% and the inhibition at 0.5 µM lay within 40 to 60%. Besides, the “GSPT1 substrate protein remaining %” value in assay [7] (setting [10]) was “A (0% ≤ substrate protein remaining % ≤ 80%)”. Moreover, in [9], the inhibition at 0.5 µM lay within 60 to 80% and the inhibition at 2 µM is 80 to 100%.

Turning to `O=C1CCC(N2Cc3cc(CN4CCN(c5cncc(Cl)c5Cl)CC4)ccc3C2=S)C(=O)N1` (centres unmarked) [GT-09231, 3-(5-((4-(4,5-dichloropyridin-3-yl)piperazin-1-yl)methyl)-1-thioxoisoindolin-2-yl)piperidine-2,6-dione], in [1] (setting [10]), the “CK1α substrate protein remaining %” value is given as “A (0% ≤ substrate protein remaining % ≤ 80%)”. Besides, in [2] (setting [10]), the “IKZF 1 substrate protein remaining %” value is recorded as “A (0% ≤ substrate protein remaining % ≤ 80%)”. For the same compound, the “IKZF3 substrate protein remaining %” value in [3] (setting [10]) is listed as “A (0% ≤ substrate protein remaining % ≤ 80%)”. The “IKZF2 substrate protein remaining %” value in [4] (setting [10]) is recorded as “A (0% ≤ substrate protein remaining % ≤ 80%)”. Further, in assay [5] (setting [10]), the “Wee1 substrate protein remaining %” value is on record as “B (80%< substrate protein remaining %≤ 100%)”. In [6], the inhibition at 0.01 µM is 30 to 40% and the inhibition at 0.5 µM fell in the range of 40 to 60%. For the same compound, in assay [7] (setting [10]), the “GSPT1 substrate protein remaining %” value was “A (0% ≤ substrate protein remaining % ≤ 80%)”. Further, in assay [9], the inhibition at 0.5 µM was in the range of 60 to 80% and the inhibition at 2 µM is 80 to 100%.

`O=C1CCC(N2Cc3cc(CN4CCN(c5c(F)c(F)nc(F)c5F)CC4)ccc3C2=S)C(=O)N1` (centres unmarked) [GT-09250, 3-(5-((4-(perfluoropyridin-4-yl)piperazin-1-yl)methyl)-1-thioxoisoindolin-2-yl)piperidine-2,6-dione]: in [6], the inhibition at 0.01 µM is 30 to 40% and the inhibition at 0.5 µM lay in the range of 40 to 60%. In assay [8], the inhibition at 0.01 µM lay within 30 to 40% and the “Inhibition Rate at 500 nM (%)” value is recorded as “la7”. Further, in assay [9], the inhibition at 0.5 µM lay in the range of 60 to 80% and the inhibition at 2 µM was 80 to 100%.

One may read the inhibition as the change of the read-out against control, counted positive when it falls.
